The target of test [1] is T1, RbMPO-LEGGEAEA-GOx chimera (Rhodopirellula baltica myeloperoxidase, SEQ ID NO: 10; linker SEQ ID NO: 4; Penicillium amagasakiens glucose oxidase, SEQ ID NO: 12) (Penicillium amagasakiense, UniProt P81156). The conditions noted are these: monomer 1, NaSCN as a substrate, 50 mM glucose, pH6, 37° C. The procedure: Initial rate measurements under steady state conditions were made with a BioLogic SFM400 stopped-flow by using a single-mixing mode and Xe/Hg lamp and a TC100/10 cell. One syringe was filled with the chimera and another one with glucose and NaSCN. The concentrations of the chimera and glucose were fixed (300 nM and 50 mM, respectively), and measurement was carried out at 37° C. and at 240 nm. The appearance of −OSCN (hypothiocyanate) was measured at 240 nm at 37° C. in a 50 mM pH6 sodium phosphate buffer. At least five shots of 120 s were performed for each value of the NaSCN substrate range with the following sample period: 20 μs, 20 ms, 20 ms with 2000 points per period. Slopes were calculated from shots average for each concentration and kss (s^−1) were determined using slopes with the following formula:
The molar extinction coefficient of −OSCN is ε−OSCN=[…]. Collecting data were analysed with Origin software and kss values were fitted with Michaëlis-Menten equation.

Test [2] has as its target T2, RbMPO-LEKREAEALEKREAEA-GOx chimera (Rhodopirellula baltica myeloperoxidase, SEQ ID NO: 10); linker SEQ ID NO: 6; Penicillium amagasakiens glucose oxidase, SEQ ID (Penicillium amagasakiense, UniProt P81156).
T2 construct: 6His (in the pET21a vector behind the XhoI site); made in house; host or cells: E. coli BL21Star (DE3)
Nature of the test: Coupled active sites, HOCl production from glucose, APF assay (Table 9), linker LEKREAEALEKREAEA
It counts as biochemical. The conditions noted are these: dimer/monomer; fixed NaCl 20 mM, pH7.5. The procedure: (§1) Each experiment was performed in triplicate.
(§2) The activity of the two active sites was then assessed in conjunction to each other (FIG. 1).
(§3) Briefly, the aim was to measure the production of HOCl from glucose and NaCl as respective substrates of the enzymes, using the APF probe. Two types of kinetics were performed: • i) kinetics at various concentrations of glucose and a fixed concentration of NaCl, and • ii) kinetics at various concentration of NaCl and a fixed concentration of glucose.
T2 sequence (P81156 with tags, fused parts or gaps): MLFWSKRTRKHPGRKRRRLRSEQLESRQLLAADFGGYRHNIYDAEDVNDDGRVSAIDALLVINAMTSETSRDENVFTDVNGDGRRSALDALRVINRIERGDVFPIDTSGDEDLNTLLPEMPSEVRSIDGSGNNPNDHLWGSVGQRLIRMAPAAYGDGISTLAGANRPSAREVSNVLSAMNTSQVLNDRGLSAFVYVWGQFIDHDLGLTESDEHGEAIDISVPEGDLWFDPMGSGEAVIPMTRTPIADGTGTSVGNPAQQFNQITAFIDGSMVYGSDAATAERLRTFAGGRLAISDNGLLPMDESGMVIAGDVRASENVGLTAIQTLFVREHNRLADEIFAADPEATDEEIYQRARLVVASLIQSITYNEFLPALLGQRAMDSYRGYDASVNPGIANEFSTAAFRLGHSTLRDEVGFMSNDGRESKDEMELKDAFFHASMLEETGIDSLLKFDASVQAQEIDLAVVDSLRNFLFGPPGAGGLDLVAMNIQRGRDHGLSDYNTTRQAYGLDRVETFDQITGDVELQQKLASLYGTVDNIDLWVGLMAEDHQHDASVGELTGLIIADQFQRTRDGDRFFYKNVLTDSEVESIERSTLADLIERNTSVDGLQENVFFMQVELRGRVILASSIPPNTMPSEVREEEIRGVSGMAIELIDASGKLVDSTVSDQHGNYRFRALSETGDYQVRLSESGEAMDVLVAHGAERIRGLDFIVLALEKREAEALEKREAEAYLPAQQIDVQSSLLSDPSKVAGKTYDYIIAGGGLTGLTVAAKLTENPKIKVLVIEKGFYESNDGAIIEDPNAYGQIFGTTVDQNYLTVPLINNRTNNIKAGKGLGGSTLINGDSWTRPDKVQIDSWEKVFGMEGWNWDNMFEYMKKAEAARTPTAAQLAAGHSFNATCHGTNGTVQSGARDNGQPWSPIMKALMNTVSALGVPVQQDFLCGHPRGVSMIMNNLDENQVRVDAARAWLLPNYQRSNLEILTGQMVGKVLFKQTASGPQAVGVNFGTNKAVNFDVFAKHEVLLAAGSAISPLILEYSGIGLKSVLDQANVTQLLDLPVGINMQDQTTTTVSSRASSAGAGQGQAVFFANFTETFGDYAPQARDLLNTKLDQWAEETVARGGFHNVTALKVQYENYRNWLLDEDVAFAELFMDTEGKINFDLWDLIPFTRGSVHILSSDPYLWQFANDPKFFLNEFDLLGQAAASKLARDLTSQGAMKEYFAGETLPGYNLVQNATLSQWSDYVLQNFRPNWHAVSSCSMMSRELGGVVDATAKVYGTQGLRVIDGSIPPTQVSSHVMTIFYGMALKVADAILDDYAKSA

The target of test [3] is T3, RbMPO-LGKRGAGA-GOx chimera (Rhodopirellula baltica myeloperoxidase, SEQ ID NO: 10; linker SEQ ID NO: 5; Penicillium amagasakiens glucose oxidase, SEQ ID NO: 12) (Penicillium amagasakiense, UniProt P81156).
T3 construct: 6His (in the pET21a vector behind the XhoI site); made in house; host or cells: E. coli BL21Star (DE3)
Description: Coupled active sites, HOCl production from glucose, APF assay (Table 9), linker LGKRGAGA
The format is biochemical. The conditions noted are these: trimer; fixed NaCl 20 mM, pH7.5. How it is done:
as §1, §2, §3

The target in test [4] is T4, RbMPO-GOx chimera, no linker (Rhodopirellula baltica myeloperoxidase, SEQ ID NO: 10, fused to Penicillium amagasakiens glucose oxidase, SEQ ID NO: 12) (Penicillium amagasakiense, UniProt P81156). Description: Coupled active sites, HOCl production from glucose, APF assay (Table 9), chimera without linker. It counts as biochemical. Details: heme and FAD reconstituted; monomer; GOx mature part (P81156 19-605). The conditions noted are these: monomer; fixed NaCl 20 mM, pH7.5. How it is done: as §1, §2, §3
Target sequence in this assay (P81156 19-605, change not shown): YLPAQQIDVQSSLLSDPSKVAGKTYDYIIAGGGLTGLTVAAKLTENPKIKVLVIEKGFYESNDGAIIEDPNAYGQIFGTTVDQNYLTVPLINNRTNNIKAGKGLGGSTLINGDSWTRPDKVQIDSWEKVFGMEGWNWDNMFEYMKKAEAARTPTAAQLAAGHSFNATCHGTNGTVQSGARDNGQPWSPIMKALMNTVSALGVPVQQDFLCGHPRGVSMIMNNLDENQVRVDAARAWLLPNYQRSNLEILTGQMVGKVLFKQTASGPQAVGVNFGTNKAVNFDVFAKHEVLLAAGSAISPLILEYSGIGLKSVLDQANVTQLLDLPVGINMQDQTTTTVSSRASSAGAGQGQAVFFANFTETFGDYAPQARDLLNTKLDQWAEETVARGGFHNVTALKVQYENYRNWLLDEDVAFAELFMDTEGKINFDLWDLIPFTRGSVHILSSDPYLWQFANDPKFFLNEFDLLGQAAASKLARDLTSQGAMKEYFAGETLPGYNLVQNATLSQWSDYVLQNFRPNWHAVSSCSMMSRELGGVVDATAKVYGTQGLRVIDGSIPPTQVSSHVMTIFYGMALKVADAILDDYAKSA

Test [5] has as its target T1, RbMPO-LEGGEAEA-GOx chimera (Rhodopirellula baltica myeloperoxidase, SEQ ID NO: 10; linker SEQ ID NO: 4; Penicillium amagasakiens glucose oxidase, SEQ ID NO: 12). Nature of the test: Coupled active sites, HOCl production from glucose, APF assay (Table 9), linker LEGGEAEA
The format is biochemical. Also noted: 6His (in the pET21a vector behind the XhoI site); made in house; host or cells: E. coli BL21Star (DE3). The procedure:
as §1, §2, §3

Test [6] deals with RbMPO-GGGGGGGG-GOx chimera (Rhodopirellula baltica myeloperoxidase, SEQ ID NO: 10; linker SEQ ID NO: 9; Penicillium amagasakiens glucose oxidase, SEQ ID NO: 12) (Penicillium amagasakiense, UniProt P81156). The conditions noted are these: 20 mM NaCl, pH7.5; for Km: read-out: KM H2O2; for Ki: read-out: Ki H2O2, substrate inhibition. How it is done: (§4) The fluorescent probe aminophenyl fluorescein (APF) (λexcitation=485 nm and λemission=525 nm) was used to measure the HOCl production by the chimera, as a measure of its chlorination activity. Three tests were performed: (1) at different glucose concentrations (0, 1, 2, 3, 4, 5, 6, 8, 10, 15, 20 mM) with fixed concentrations of chimera (1 μM) and NaCl (20 mM); (2) at different NaCl concentrations (0, 10, 20, 50, 100, 250, 500, 750 μM and 1 mM) with fixed concentrations of chimera (1 μM) and glucose (20 mM); (3) at different H2O2 concentrations (0, 0.01, 0.02, 0.05, 0.079, 0.1, 0.25, 0.5, 0.75, 1, 2, 4, 6, 8, 10, 20, 40, 60, 80, 100, 200, 500 mM) with fixed concentrations of chimera (1 μM) and NaCl (20 mM). For all experiments, 10 μM APF was used in each assay with 50 mM NaPi buffer pH7.5 QSP 20 μL (384-well plate). Each experiment was performed in triplicate. A 10-30 min. kinetic was performed for each range value and the increase rate of fluorescence intensity was compared to the standard fluorescein range. The measured fluorescence per second was thus proportional to the amount of fluorescein, which in turn was proportional to the amount of HOCl produced by the chimeras.
(§5) Steady-state kinetic parameters were determined by adjustment of experimental data to the following equations depending on the appearance of saturation curves: […]
(§6) In order to determine the RbMPO activity of the chimeras, a H2O2 concentration range was performed at a fixed concentration of NaCl. HOCl reacted with APF probe and apparition of fluorescein was monitored.

Test [7] has as its target T4, RbMPO-GOx chimera, no linker (Rhodopirellula baltica myeloperoxidase, SEQ ID NO: 10, fused to Penicillium amagasakiens glucose oxidase, SEQ ID NO: 12). The following applies: monomer, 20 mM NaCl, pH7.5. How it is done:
as §4, §5, §6
Target sequence in this assay (P81156 other isoform, or with tags, fused parts or gaps): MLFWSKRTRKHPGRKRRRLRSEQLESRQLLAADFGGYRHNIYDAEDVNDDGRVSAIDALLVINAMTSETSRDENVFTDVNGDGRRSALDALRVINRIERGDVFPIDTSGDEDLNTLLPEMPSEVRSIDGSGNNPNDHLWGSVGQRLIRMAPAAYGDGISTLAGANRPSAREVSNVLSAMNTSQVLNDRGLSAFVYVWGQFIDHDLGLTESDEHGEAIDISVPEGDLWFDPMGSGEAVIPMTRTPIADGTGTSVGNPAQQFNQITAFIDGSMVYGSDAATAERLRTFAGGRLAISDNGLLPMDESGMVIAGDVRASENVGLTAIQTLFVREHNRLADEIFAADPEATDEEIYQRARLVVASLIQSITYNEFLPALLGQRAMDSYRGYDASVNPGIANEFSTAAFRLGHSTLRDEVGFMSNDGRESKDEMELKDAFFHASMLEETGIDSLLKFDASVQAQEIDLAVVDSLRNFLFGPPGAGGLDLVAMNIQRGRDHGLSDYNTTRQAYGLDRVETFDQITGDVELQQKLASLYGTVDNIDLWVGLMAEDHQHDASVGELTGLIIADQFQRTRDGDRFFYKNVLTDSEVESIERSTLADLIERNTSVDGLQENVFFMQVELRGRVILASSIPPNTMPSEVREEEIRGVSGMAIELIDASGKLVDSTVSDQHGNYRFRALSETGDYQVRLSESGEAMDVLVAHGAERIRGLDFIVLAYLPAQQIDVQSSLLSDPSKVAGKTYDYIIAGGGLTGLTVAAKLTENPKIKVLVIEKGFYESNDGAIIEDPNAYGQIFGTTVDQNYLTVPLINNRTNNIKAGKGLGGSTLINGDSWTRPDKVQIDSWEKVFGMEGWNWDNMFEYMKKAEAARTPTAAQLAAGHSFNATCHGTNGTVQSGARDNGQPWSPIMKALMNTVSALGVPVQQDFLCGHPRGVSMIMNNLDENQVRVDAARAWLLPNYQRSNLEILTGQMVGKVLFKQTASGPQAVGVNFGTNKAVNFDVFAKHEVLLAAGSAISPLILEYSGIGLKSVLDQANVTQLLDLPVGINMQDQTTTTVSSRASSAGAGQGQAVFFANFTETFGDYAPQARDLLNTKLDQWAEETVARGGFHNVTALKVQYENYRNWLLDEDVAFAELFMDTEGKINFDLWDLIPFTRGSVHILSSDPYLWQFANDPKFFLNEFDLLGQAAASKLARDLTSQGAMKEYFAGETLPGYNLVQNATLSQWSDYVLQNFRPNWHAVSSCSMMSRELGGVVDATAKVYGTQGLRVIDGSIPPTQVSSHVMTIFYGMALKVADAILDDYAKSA

The target in test [8] is T1, RbMPO-LEGGEAEA-GOx chimera (Rhodopirellula baltica myeloperoxidase, SEQ ID NO: 10; linker SEQ ID NO: 4; Penicillium amagasakiens glucose oxidase, SEQ ID NO: 12). How it is done: as §4, §5, §6
Test [9] concerns the target RbMPO-LEKREAEA-GOx chimera (Rhodopirellula baltica myeloperoxidase, SEQ ID NO: 10; linker SEQ ID NO: 7; Penicillium amagasakiens glucose oxidase, SEQ ID NO: 12) (Penicillium amagasakiense, UniProt P81156). The conditions noted are these: trimer, 20 mM NaCl, pH7.5. How it is done:
as §4, §5, §6

The target of test [10] is RbMPO-LEKRPEAEA-GOx chimera (Rhodopirellula baltica myeloperoxidase, SEQ ID NO: 10); linker SEQ ID NO: 8; Penicillium amagasakiens glucose oxidase, SEQ ID NO: 12 (Penicillium amagasakiense, UniProt P81156). The conditions noted are these: 20 mM NaCl, pH7.5; for Km: read-out: KM H2O2; for Ki: read-out: Ki H2O2, substrate inhibition. How it is done: as §4, §5, §6
Test [11] deals with RbMPO-LGKRGAGA-GOx chimera (Rhodopirellula baltica myeloperoxidase, SEQ ID NO: 10; linker SEQ ID NO: 5; Penicillium amagasakiens glucose oxidase, SEQ ID NO: 12). The following applies: result in words. How it is done: as §4, §5
In test [12] the target is RbMPO-LEKREAEALEKREAEA-GOx chimera (Rhodopirellula baltica myeloperoxidase, SEQ ID NO: 10); linker SEQ ID NO: 6; Penicillium amagasakiens glucose oxidase, SEQ ID (Penicillium amagasakiense, UniProt P81156). The following applies: 20 mM NaCl, pH7.5; for Km: read-out: KM H2O2; for Ki: read-out: Ki H2O2, substrate inhibition.
Description: The fluorescent probe aminophenyl fluorescein (APF) (λexcitation=485 nm and λemission=525 nm) was used to measure the HOCl production by the chimera, as a measure of its chlorination activity. […] For all experiments, 10 μM APF was used in each assay with 50 mM NaPi buffer pH7.5 QSP 20 μL (384-well plate). Each experiment was performed in triplicate. A 10-30 min. kinetic was performed for each range value and the increase rate of fluorescence intensity was compared to the standard fluorescein range. The measured fluorescence per second was thus proportional to the amount of fluorescein, which in turn was proportional to the amount of HOCl produced by the chimeras.
Setting [13] is: mixture of oligomers, 15 mM glucose and 500 mM NaCl.
The mark [14] stands for this setting: read-out: Ki H2O2, substrate inhibition.

Several values for one entry are separate records, joined by “and”; a condition that tells them apart may be missing. Equal values may be shown once. Read-outs that look alike come from different tables or passages of the source.

RbMPO-GGGGGGGG-GOx chimera (Rhodopirellula baltica myeloperoxidase, SEQ ID NO: 10; linker SEQ ID NO: 9; Penicillium amagasakiens glucose oxidase, SEQ ID NO: 12), sequence (P81156 with tags, fused parts or gaps): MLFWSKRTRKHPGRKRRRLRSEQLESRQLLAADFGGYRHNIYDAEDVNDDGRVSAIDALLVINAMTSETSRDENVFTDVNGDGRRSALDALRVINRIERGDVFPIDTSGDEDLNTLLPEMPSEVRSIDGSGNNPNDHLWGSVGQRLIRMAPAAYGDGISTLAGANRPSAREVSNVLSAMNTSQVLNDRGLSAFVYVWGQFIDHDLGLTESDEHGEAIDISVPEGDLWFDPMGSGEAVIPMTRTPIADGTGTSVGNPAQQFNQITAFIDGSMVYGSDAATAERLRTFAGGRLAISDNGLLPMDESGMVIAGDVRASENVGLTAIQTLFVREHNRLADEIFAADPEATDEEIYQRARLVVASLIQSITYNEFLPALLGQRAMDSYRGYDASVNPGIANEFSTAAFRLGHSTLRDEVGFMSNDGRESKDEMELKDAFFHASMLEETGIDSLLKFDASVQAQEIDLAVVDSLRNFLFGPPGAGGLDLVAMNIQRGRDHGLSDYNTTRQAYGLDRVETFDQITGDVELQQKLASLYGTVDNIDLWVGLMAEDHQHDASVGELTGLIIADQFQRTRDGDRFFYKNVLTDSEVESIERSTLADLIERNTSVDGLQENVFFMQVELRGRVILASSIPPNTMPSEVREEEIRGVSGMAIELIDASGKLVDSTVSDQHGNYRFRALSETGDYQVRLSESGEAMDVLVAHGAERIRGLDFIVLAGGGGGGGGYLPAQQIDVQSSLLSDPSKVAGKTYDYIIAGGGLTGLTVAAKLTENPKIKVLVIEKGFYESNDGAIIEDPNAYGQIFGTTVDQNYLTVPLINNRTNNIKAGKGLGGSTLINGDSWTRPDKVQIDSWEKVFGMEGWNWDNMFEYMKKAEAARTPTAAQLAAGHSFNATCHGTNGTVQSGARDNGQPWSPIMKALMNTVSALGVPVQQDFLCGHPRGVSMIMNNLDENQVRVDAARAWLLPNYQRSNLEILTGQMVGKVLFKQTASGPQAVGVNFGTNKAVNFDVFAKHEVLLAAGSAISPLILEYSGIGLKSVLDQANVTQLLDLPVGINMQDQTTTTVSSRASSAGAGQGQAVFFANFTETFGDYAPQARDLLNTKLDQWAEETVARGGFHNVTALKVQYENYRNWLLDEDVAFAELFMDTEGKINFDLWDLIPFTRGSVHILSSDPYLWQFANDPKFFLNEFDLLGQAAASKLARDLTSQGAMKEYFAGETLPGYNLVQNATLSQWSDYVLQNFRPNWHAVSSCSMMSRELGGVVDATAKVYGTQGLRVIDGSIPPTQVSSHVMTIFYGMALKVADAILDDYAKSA

For orientation: kcat means the number of substrate molecules converted per active site and unit of time at saturation. By kcat/KM is commonly meant the turnover number divided by the Michaelis constant. The term Km denotes the substrate concentration at which the rate is half of its maximum. For the molecule `N#CS` [SCN, thiocyanate], in test [1], the kcat stood at 0.31 s⁻¹ and the kcat/KM was found to be 1409 M⁻¹ s⁻¹. Besides, in test [1] (read-out: KM SCN), the Michaelis-Menten constant (Km) was 220 µM.

Consider `OC[C@H]1OC(O)[C@H](O)[C@@H](O)[C@@H]1O` (stereo partly drawn) [glucose], for which the kcat/KM glucose was 2.47 ± 1.58 M⁻¹ s⁻¹ in [2]; 1.1 ± 0.8 M⁻¹ s⁻¹ in test [3]; 2.73 ± 1.5 M⁻¹ s⁻¹ in test [5] (monomer 2, fixed NaCl 20 mM, pH7.5). Besides, the Michaelis-Menten constant (Km) in test [4] stood at 3020 ± 770 µM. In addition, the catalytic constant (kcat) in [4] was 3.09e-05 s⁻¹. Moreover, in [5] (setting [13]), the kss result was “around 10^−3 s^−1”. Also, the “kss/[Glucose]” value in test [5] (setting [13]) is given as 10^−3 M^−1·s^−1.

`OO` [H2O2, hydrogen peroxide]: the turnover number (kcat) in test [6] (dimer/monomer) was 0.00418 s⁻¹; in test [6] (excluded), 0.0001682 s⁻¹; in test [6] (monomer), 0.0001798 s⁻¹; in test [6] (trimer), 0.0005086 s⁻¹; in [7] it was 0.0012 s⁻¹; in test [8] (monomer 1, 20 mM NaCl, pH7.5) it was 0.0003086 s⁻¹. Moreover, the kcat in test [9] is 0.000587 s⁻¹; in [10] (dimer/monomer) it was 0.000576 s⁻¹; in [10] (excluded), 0.0001553 s⁻¹; in test [10] (trimer), 0.0003 s⁻¹; in test [12] (dimer/monomer), 0.00374 s⁻¹; in test [12] (trimer), 0.0047 s⁻¹. Moreover, the specificity constant (kcat/KM) in [6] (dimer/monomer) was 363.5 ± 382.3 M⁻¹ s⁻¹; in test [6] (excluded), 1 ± 0.6 M⁻¹ s⁻¹ and 0.998 ± 0.603 M⁻¹ s⁻¹; in [6] (monomer), 38.3 ± 23.6 M⁻¹ s⁻¹; in test [6] (trimer), 177.8 ± 133.1 M⁻¹ s⁻¹; in [7], 4.44 ± 3.15 M⁻¹ s⁻¹; in test [8] (monomer 1, 20 mM NaCl, pH7.5) it was 34.2 ± 19.4 M⁻¹ s⁻¹. Moreover, the catalytic efficiency (kcat/KM) was 13.04 ± 6.51 M⁻¹ s⁻¹ in [9]; 16.08 ± 17.15 M⁻¹ s⁻¹ in test [10] (dimer/monomer); 6.82 ± 4.27 M⁻¹ s⁻¹ in [10] (excluded); 0.426 ± 0.365 M⁻¹ s⁻¹ in test [10] (trimer); 1508 ± 19.4 M⁻¹ s⁻¹ and 1508 ± 107 M⁻¹ s⁻¹ in test [12] (dimer/monomer); 361.5 ± 64.5 M⁻¹ s⁻¹ in test [12] (trimer). The Km in test [6] (dimer/monomer) is 11.5 µM; in [6] (excluded) it was 168 ± 81 µM; in test [6] (monomer), 4.7 µM; in test [6] (trimer) it was 2.86 µM; in test [7] (read-out: KM H2O2), 270 ± 140 µM; in test [8] (read-out: KM H2O2, monomer 1, 20 mM NaCl, pH7.5) it was 9.02 µM. Also, the Km in test [9] (read-out: KM H2O2) is 45 ± 15 µM; in test [10] (dimer/monomer), 36 ± 25 µM; in test [10] (excluded) it was 23 ± 11 µM; in [10] (trimer), 704 ± 448 µM; in [12] (dimer/monomer) it was 2.48 µM; in test [12] (trimer), 13 ± 1 µM. In addition, the Ki in test [6] (dimer/monomer) came to 0.0329 mM; in test [6] (monomer) it was 13.1 ± 4.9 mM; in [6] (trimer) it was 5.92 ± 3.22 mM; in test [7] (setting [14]) it was 1.91 ± 0.48 mM; in test [8] (read-out: Ki H2O2, monomer 1, 20 mM NaCl, pH7.5, substrate inhibition), 34.9 ± 12.6 mM; in test [9] (setting [14]), 2.12 ± 1.7 mM. In addition, the Ki in test [10] (dimer/monomer) came to 6.3 ± 3.33 mM; in test [10] (excluded), 17.3 ± 10.6 mM; in [10] (trimer) it was 35.9 ± 22.2 mM; in test [12] (dimer/monomer) it was 4.63 ± 1.05 mM; in [12] (trimer) it was 0.597 ± 0.211 mM. The “inhibition by H2O2” value in test [8] (result in words) and in test [11] was “weak inhibition” throughout. In test [12] (excluded), the “kss/[H2O2]” value amounted to 0.0051 ± 0.00035 M⁻¹ s⁻¹.

These data come from patent US20260201347A1, “ARTIFICIAL BIFUNCTIONAL ENZYME COMPRISING A MYELOPEROXIDASE ACTIVITY AND A GLUCOSE OXIDASE ACTIVITY AND APPLICATIONS THEREOF” (UNIVERSITÉ DE BORDEAUX, priority 2022, published 2026).
